This is an account of results in patent US11478451B1, “Macrocyclic chlorine substituted indole derivatives” (Bayer Aktiengesellschaft, priority 2017, dated 2022).

For orientation: EC50 means the midpoint of the concentration-response curve.

The subject of data set [1] is SUDHL5 cells. In words: Induction of caspase-3/7 activity (Caspase-Glo 3/7), SUDHL5. The data set is classed as cell-based. Conditions: EC50, median; SUDHL5, 3 h treatment. The procedure, abridged:
(§1)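 Steps: seed the diffuse large B-cell lymphoma cells, leaving rim wells unused; add compounds; incubate 3 h at 37 °C; add Caspase-Glo 3/7 reagent; read; subtract medium-only background.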

For data set [2], the system named is SUDHL10 cells. The data set is described as follows: Induction of caspase-3/7 activity (Caspase-Glo 3/7), SUDHL10. Conditions: EC50, median, SUDHL10, 3 h treatment. The data set is classed as cell-based. The procedure, abridged: as §1
Data set [3] relates to SUDHL5 cells. The data set is described as follows: Antiproliferation assay (CellTiter-Glo, 72 h), SUDHL5. The data set is classed as cell-based. Conditions: IC50, median; SUDHL5, 72 h; read-out: Antiproli SUDHL5 [M] (median). An outline of the steps: (§2)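 Luminescent ATP-based viability (CellTiter-Glo) measured after 72 h of compound treatment at 37 °C. A day 0 plate recorded at time zero served as the starting reference for proliferation.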
On the technique in general: ATP-based viability assays read luminescence as a measure of living cells.

A further data set relates to MV-4-11 cells. The data set is described as follows: Antiproliferation assay (CellTiter-Glo, 72 h), MV-4-11. The conditions noted are these: IC50, median; MV-4-11, 72 h; read-out: Antiproli MV-4-11 [M] median. The data set is classed as cell-based. The protocol:
(§3) Assessment of the Anti-Proliferative Effect of Compounds in Different Cell Lines
(§4) The impact of compounds on the proliferation of different cell lines was assessed using the CellTiter-Glo® Luminescent Cell Viability reagent from Promega (G7573).
(§5) In parallel, cells were plated in a reference (day 0) plate for time zero determination.
(§6) Rim wells were excluded. The cells were incubated for 72 h hours in a humidified incubator at 37° C. The day 0 plate was measured by adding 30 μL/well of CTG solution (CellTiter-Glo® Luminescent Cell Viability reagent, Promega G7573) to time zero wells in the reference plate followed by a 10 minutes incubation and luminescence reading at 0.1 ms. using the PHERAstar FS microplate reader (BMG Labtech).
(§7) After 72 h incubation, the treated plates were measured in the same way as the day 0 plate mentioned above.

The subject of the next data set is SK-BR-3 cells. The data set is described as follows: Antiproliferation assay (CellTiter-Glo, 72 h), SK-BR-3. The data set is classed as cell-based. The conditions noted are these: IC50, median; SK-BR-3, 72 h; read-out: Antiproli SK-BR-3 [M] median. The protocol: as §3, §4, §5, §6, §7
In data set [4] the test system is SUDHL5 cells. The data set is described as follows: Induction of cytotoxicity (CellTiter-Glo, 5 h), SUDHL5. Conditions: read-out: Cytotox SUDHL5 [M] (median); IC50, median; SUDHL5, 5 h.
Data set [5] concerns SUDHL10 cells. The data set is described as follows: Induction of cytotoxicity (CellTiter-Glo, 5 h), SUDHL10. Conditions: SUDHL10, 5 h.
A further data set addresses MCL-1 (Homo sapiens (Human), UniProt Q07820, K194A/K197A/R201A). The data set is described as follows: Protein-protein interaction assay MCL-1/Noxa BH3 peptide (MCL-1 assay), TR-FRET. Conditions: IC50, median; MCL-1/Noxa BH3 TR-FRET. The data set is classed as binding. The protocol:
The dose-dependent inhibition by the compounds described in this invention of the interaction between MCL-1 and the BH3 domain of Noxa (both human) was determined using a steady state binding competition assay with time-resolved fluorescence energy transfer (TR-FRET) readout. […] The MBP-MCL-1 was purchased from Beryllium (Bedford, Mass., USA). The expression and purification of this protein construct has been described elsewhere (DOI:10.1371/journal.pone.0125010). The Noxa BH3-derived peptide can be obtained from e.g. Biosyntan (Berlin, Germany), 50812.1.
For that, 100-fold concentrated DMSO solutions were prepared by serial dilutions (1:3.4) of a 2 mM stock solution in a clear, 384-well microtiter plate (Greiner Bio-One, Frickenhausen, Germany). From there, 50 nl were transferred in a dark test plate (Greiner Bio-One, Frickenhausen, Germany). […] This was followed by a 10-minute incubation step at 22° C. for pre-equilibration of the putative complex between MBP-MCL-1 and the compounds.
The mixture was incubated in the dark for one hour at 22° C. and then overnight at 4° C.
The resulting data (ratio) were normalized, taking 0% inhibition as the mean value of control measurements (usually 32 data points) where all reagents were included. In this case 50 nl DMSO were used instead of compounds. […] IC50 values were determined by regression analysis based on a 4 parameter equation (minimum, maximum, IC50, Hill; Y=Max+(Min−Max)/(1+(X/IC50)^Hill) using the Screener Software (Genedata).

The target in another data set is MCL1 protein (Homo sapiens (Human), UniProt Q07820). The data set is described as follows: PIxEL: protein-protein interaction in permeabilized cells by ELISA (MCL1/biotin-BIM BH3 peptide, RKO cells). The data set is classed as cell-based. Conditions: IC50, median, serum free. The protocol:
PIxEL: Protein-Protein Interaction in Permeabilized Cells by ELISA
Most MCL1 protein molecules are localized at the mitochondria outer membrane and sequester pro-apoptotic proteins through binding of their BCL2 homology domain 3 (BH3 domain). MEB buffer (150 mM mannitol, 10 mM HEPES pH 7.5, 50 mM KCl, 20 μM EDTA, 20 μM EGTA, 5 mM potassium succinate, 0.1% protease-free BSA (SIGMA) with low dose digitonin (0.002%) permeabilizes plasma membrane while leaves live mitochondria, where MCL1 maintains its native localization and conformation. Unlike biophysical assays (e.g. TR-FRET) that use truncated recombinant MCL1 protein, this assay uses full length endogenous MCL1 protein at mitochondria outer membrane. It measures the interaction between MCL1 protein and biotinylated BIM BH3 peptide. Compounds can compete with BIM BH3 peptide to bind to MCL1 protein.
On day 1, RKO colon cancer cell line cells were plated at 0.8 million cells/ml, 100 μl/well in 96-well flat bottom TC plates (Corning). MCL1 antibody (Santa Cruz sc-12756) were diluted at 200 fold (final concentration 1 μg/ml) in carbonate buffer (Thermo Fisher Scientific, pH 9.6), and 50 μl of diluted antibody was added to each well of high bind ELISA plates ([…]). Each plate was tapped to make sure liquid covering entire bottom of wells and incubate at 37° C. overnight.
On the second day, MCL1 antibody was washed from ELISA plate. 250 μl Odyssey® Blocking Buffer (PBS) (Li-Cor) was added to each well, incubated at room temperature for at least 1 hour, then washed once with 250 μl 1×PBST. Plates with RKO cells were gently washed once with 100 μl/well PBS, once with 100 μl/well MEB buffer without digitonin, then 100 μl of MEB buffer with 0.002% digitonin was gently added to each well. Compounds were added with HP Tecan compound dispenser in 3-fold dilution series, highest dose 30 μM, 10-dose per compound in quadruplicates. Biotin-BIM peptide (synthesized by 21st Century) was added with HP Tecan compound dispenser at 0.2 μM immediately after the addition of compounds. Plates were rocked for 1 hour at room temperature. Then MEB buffer was aspirated and 50 μl of CHAPS buffer (50 mM Tris-Cl, pH 7.4, 150 mM NaCl, 1% CHAPS, 1 mM EDTA, 1 mM EGTA, cOmplete protease inhibitors (Roche), PhosSTOP (Roche)) was added to each well. Plates were rocked for 1 hour at 4° C., then 45 μl cell lysate from each well were transferred to ELISA plates coated with MCL1 antibody. Plates were incubated overnight in the cold room with rocking.
On the third day, ELISA plates were washed once with 250 μl 1×PBST. Streptavidin-poly-HRP (Thermo Fisher Scientific) was diluted to 20 ng/ml in Odyssey blocking buffer plus 0.05% Triton-100, and 100 μl was added to each well of the ELISA plate. Plates were incubated at RT from 1 hour with rocking, then washed with 100 μL 1×PBST for 3 times. Each SuperSignal ELISA Femto Maximum Sensitivity substrate was added to a 50-ml tube and mixed, then 100 μl of mixed substrate was added to each well. Plates were shaken for 1 minute then luminescence was measured by Envision plate reader […]. Signal of each well were normalized by no-compound control and no-cell control. IC50 was calculated using Graphic Pad PRISM software.
(An ELISA detects its analyte on a solid surface through an enzyme-linked reagent.)

For data set [6], the system named is SUDHL10 cells. In words: Antiproliferation assay (CellTiter-Glo, 72 h), SUDHL10. The conditions noted are these: Homo sapiens, SU-DHL10, 72 h, IC50, median; SUDHL10, 72 h; read-out: Antiproli SUDHL10 [M] (median). The data set is classed as cell-based. The protocol:
as §3, §4, §5, §6, §7

Another data set relates to AMO-1 cells. The data set is described as follows: Antiproliferation assay (CellTiter-Glo, 72 h), AMO-1. The data set is classed as cell-based. Conditions: IC50, median; AMO-1, 72 h; read-out: Antiproli AMO-1 [M] median. An outline of the steps:
as §2

The conditions of data set [7]: the molecule shown is the open-chain precursor, crosslinker bond, 11-membered ring, MeCN.

Where a name gives a salt, the structure may show the parent alone. Read-outs that look alike come from different tables or passages of the source.

Chain of MCL1 protein (Q07820 whole entry): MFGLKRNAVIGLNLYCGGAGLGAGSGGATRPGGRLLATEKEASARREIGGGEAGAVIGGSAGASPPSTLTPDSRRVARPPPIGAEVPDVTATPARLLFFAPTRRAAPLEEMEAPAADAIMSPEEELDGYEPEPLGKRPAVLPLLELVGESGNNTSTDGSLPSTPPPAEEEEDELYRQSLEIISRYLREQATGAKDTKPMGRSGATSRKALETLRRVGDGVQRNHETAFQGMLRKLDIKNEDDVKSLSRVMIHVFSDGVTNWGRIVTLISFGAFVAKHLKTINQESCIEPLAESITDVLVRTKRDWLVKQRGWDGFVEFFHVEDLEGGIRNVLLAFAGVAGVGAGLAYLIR
Chain of MCL-1 (Q07820 whole entry K194A/K197A/R201A, looked up, the tested form may be a part): as the sequence (Q07820 whole entry) above, with K194A, K197A, R201A counted along it

With `CCc1nn(CCN2CCOCC2)c2c1-c1c(Cl)ccc3c(CCCOc4cccc5ccccc45)c(C(=O)O)n(c13)CCCCOC2` (racemic) [Example 8, (rac)-4-chloro-3-ethyl-1-[2-(morpholin-4-yl)ethyl]-7-[3-(naphthalen-1-yloxy)propyl]-1,10,11,12,13,15-hexahydropyrazolo[4′,3′:9,10][1,6]oxazacycloundecino[8,7,6-hi]indole-8-carboxylic acid], the EC50 was found to be 0.29 µM with SUDHL5 cells [1] and 0.36 µM in the data set with SUDHL10 cells [2] (Homo sapiens, SU-DHL10, 3 h). For the same compound, the IC50 in the data set with SUDHL5 cells [3] turned out to be 4.7e-07 M; in the data set on MV-4-11 cells it was 1.1e-06 M; with SK-BR-3 cells, 3e-06 M; in the data set with SUDHL5 cells [4], 3.5e-07 M; with SUDHL10 cells [5] (Homo sapiens, SU-DHL10, 5 h, read-out: Cytotox SUDHL10 [M] (median), IC50, median), 4.5e-07 M.

Regarding `Cc1c2c(nn1C)CN(C)CCCCn1c(C(=O)O)c(CCCOc3cccc4cc(F)ccc34)c3ccc(Cl)c-2c31` (single isomer, unassigned; enantiomer 2) [Example 32, (−)-4-chloro-7-{3-[(6-fluoronaphthalen-1-yl)oxy]propyl}-2,3,14-trimethyl-10,11,12,13,14,15-hexahydro-2H-pyrazolo[3′,4′:8,9][1,6]diazacycloundecino[10,11,1-hi]indole-8-carboxylic acid-N-ethylethanamine salt (Enantiomer 2)], the IC50 against MCL-1 amounted to 0.026 µM; against MCL1 protein it was 19.1 µM; in the data set with SUDHL5 cells [3], 6e-06 M; in the data set on MV-4-11 cells it was 1.4e-05 M; in the data set with SUDHL5 cells [4], 9.3e-06 M.

Regarding `CCc1nn(CCN2CCOCC2)c2c1-c1c(Cl)ccc3c(CCCOc4cccc5ccccc45)c(C(=O)O)n(c13)CCCCOC2` (single isomer, unassigned; enantiomer 1) [Example 9, 4-chloro-3-ethyl-1-[2-(morpholin-4-yl)ethyl]-7-[3-(naphthalen-1-yloxy)propyl]-1,10,11,12,13,15-hexahydropyrazolo[4′,3′:9,10][1,6]oxazacycloundecino[8,7,6-hi]indole-8-carboxylic acid-N-ethylethanamine salt (Enantiomer 1)], the EC50 with SUDHL5 cells [1] came to 0.27 µM; in the data set with SUDHL10 cells [2], 0.33 µM. Moreover, the IC50 is 3.7e-07 M in the data set with SUDHL5 cells [3]; 2.7e-07 M with SUDHL10 cells [6]; 8.23e-07 M with MV-4-11 cells; 8.7e-07 M with AMO-1 cells; 1.08e-06 M in the data set with SK-BR-3 cells; 2.9e-07 M in the data set on SUDHL5 cells [4]. Also, the IC50 in the data set with SUDHL10 cells [5] (read-out: Cytotox SUDHL10 [M] (median), IC50, median) was determined as 3.4e-07 M.

`CCOC(=O)c1[nH]c2c(-c3c(CC)nn(CCN4CCOCC4)c3CNC)c(Cl)ccc2c1CCCOc1cccc2ccccc12`: in data set [7] ((Z)-1,4-dichlorobut-2-ene/Cs2CO3, […]), the ring closure, isolated yield is 45%.

Consider `CCOC(=O)c1[nH]c2c(-c3c(CO)nn(C)c3CC)c(Cl)ccc2c1CCCOc1cccc2cc(F)ccc12`, for which the ring closure, isolated yield in [7] ((Z)-1,4-dichlorobut-2-ene/Cs2CO3/NaI, 77.0 mM, […]) was determined as 82%.

In the case of `CCOC(=O)c1[nH]c2c(-c3c(CO)nn(CCCO[Si](C)(C)C(C)(C)C)c3C)c(Cl)ccc2c1CCCOc1cccc2ccccc12`, the ring closure, isolated yield in data set [7] ((Z)-1,4-dichlorobut-2-ene/Cs2CO3/NaI, 31.9 mM, 70.0 °C) amounted to 68%.

In the case of `CCOC(=O)c1[nH]c2c(-c3c(CC)nn(C)c3CO)c(Cl)ccc2c1CCCOc1cccc2cc(F)ccc12`, the ring closure, isolated yield in data set [7] ((Z)-1,4-dichlorobut-2-ene/Cs2CO3/NaI, […]) was 84%.

`CCOC(=O)c1[nH]c2c(-c3c(CO)nn(C)c3C)c(Cl)ccc2c1CCCOc1cccc2ccccc12` displayed a ring closure, isolated yield in data set [7] ((Z)-1,4-dichlorobut-2-ene/Cs2CO3/NaI, […], 70.0 °C) of 71%.
